One experiment addresses T1, C1q (Homo sapiens, UniProt P02745+P02746+P02747).
T1 construct: purchased Complement Technology (Tyler, Tex.)
The experiment is described as follows: C1q binding ELISA-type assay. Conditions: for binding to C1q: plate-bound C1q, antibody detection. The procedure:
The C1q binding assay was performed as previously described. Briefly, an Immunlon-2 HB ELISA plate was coated with 1 μg/ml C1q in bicarbonate buffer overnight at 4° C. The plates were washed with PBS-T (phosphate buffered saline+0.1% Tween) and then blocked with 1% gelatin/PBS for 2 hours at room temperature. After washing, the plates were incubated with the peptides starting at 2.5 mg/ml and then serially diluted in 1% gelatin/PBS for 1 hour at room temperature followed by washing. Plates were then probed with rabbit antibody raised against the lead peptide […] (SEQ ID NO: 2) that lacked PEGylation at 1:1000 in 1% gelatin/PBS for 1 hour at room temperature followed by a goat anti-rabbit HRP (Sigma Aldrich, St Louis, Mo.) at 1:1,000 in 1% gelatin/PBS for 1 hour at room temperature with a washing step in between. After addition of TMB substrate solution to the wells, the reaction was stopped using 1N H2SO4, and the plate read on a BioTek Synergy HT plate reader at 450 nm.
The astrovirus capsid protein and the PIC1 molecules derived from it inhibit classical complement pathway activation by binding to the pattern recognition molecule C1q. The inventors next tested peptide variant binding to C1q in an ELISA-type assay in which C1q is used as the capture substrate and bound peptide detected with a rabbit polyclonal antibody against the peptide portion of PA-dPEG24 ([…]-d24; SEQ ID NO: 3). Binding curves were derived for the stapled and D-amino acid peptides based on the PA-I8Sar and PA-C9Sar (FIG. 6A-6D) backbone, from which half-maximal binding concentrations were calculated (FIGS. 2A and B, respectively). […] For the D-amino acid variants, all peptides in which C1q binding was detected, had variable but increased binding to C1q compared to PA-I8Sar (FIG. 2A). For the peptides based on the PA-C9Sar backbone, with the exception of PA-0148, C1q was bound to the same degree or greater than the parent peptide (FIG. 2B).
(§1) The inventors also assessed the ability of RLS-0127* and RLS-0133* to inhibit MPO activity as determined by inhibition of oxidation of TMB in a plate-based assay. […] Additionally, the inventors assessed the ability of RLS-0127* and RLS-0133* to bind C1q in a plate-based assay in which C1q is coated on the plate and increasing amounts of the peptides are added, followed by primary antibody to the peptides and secondary antibody conjugated to HRP. The plate was then incubated with TMB to give a […] signal that is detected at a wavelength of 450 nm in a plate reader.
Background: ELISA stands for enzyme-linked immunosorbent assay.

The target in the next experiment is T2, MPO (Homo sapiens, UniProt P05164).
T2 construct: purchased Lee BioSolutions (Maryland Heights, Mo.)
T2 sequence (P05164 49-745): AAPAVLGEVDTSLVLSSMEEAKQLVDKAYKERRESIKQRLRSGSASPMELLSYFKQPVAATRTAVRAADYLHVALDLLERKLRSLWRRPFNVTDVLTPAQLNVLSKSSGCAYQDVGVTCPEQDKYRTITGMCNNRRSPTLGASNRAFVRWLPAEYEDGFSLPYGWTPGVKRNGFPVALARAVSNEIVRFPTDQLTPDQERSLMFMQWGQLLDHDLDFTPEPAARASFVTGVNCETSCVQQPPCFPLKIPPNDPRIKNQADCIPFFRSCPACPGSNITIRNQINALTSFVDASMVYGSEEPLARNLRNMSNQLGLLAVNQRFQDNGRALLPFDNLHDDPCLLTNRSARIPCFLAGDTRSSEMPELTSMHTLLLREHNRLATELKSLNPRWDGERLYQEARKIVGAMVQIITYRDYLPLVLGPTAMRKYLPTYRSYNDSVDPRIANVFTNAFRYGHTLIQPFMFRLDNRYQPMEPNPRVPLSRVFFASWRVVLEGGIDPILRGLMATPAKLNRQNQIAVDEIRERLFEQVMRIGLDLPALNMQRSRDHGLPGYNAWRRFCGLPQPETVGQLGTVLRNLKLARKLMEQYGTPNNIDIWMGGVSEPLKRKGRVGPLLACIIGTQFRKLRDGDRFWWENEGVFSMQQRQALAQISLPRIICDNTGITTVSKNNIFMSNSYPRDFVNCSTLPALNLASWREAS
Kind of experiment: MPO activity assay (TMB oxidation). Type of experiment: biochemical. Particulars: for inhibition of MPO peroxidase activity (TMB oxidation), dose response: purified human MPO, increasing amounts of peptide. How it is done:
The MPO activity assay was performed as previously described. Briefly, peptides were diluted to 12 mg/ml and serially titrated in a 96 well plate at a volume of 0.02 ml. MPO was diluted to 20 μg/ml and 0.02 ml was added to the titrated peptides. TMB (3,30,5,50-tetramethylbenzidine) (0.1 ml) was added to each well for 2 minutes, followed by 0.1 ml of 2.5 N H2SO4 for another 2 minutes, and then read on a 96 well plate reader (BioTek) at 450 nm.
as §1

The target in the next experiment is T3, CTLA-4 (Homo sapiens, UniProt P16410).
T3 sequence (P16410 36-223): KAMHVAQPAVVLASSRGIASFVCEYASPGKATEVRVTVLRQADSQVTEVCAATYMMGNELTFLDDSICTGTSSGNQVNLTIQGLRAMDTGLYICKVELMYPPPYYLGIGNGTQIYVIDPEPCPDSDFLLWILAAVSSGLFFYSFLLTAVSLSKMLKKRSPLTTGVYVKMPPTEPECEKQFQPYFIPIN
Kind of experiment: CTLA-4 Blockade Bioassay (Promega). Type of experiment: cell-based. The arrangement: host or cells: Jurkat T cells (CTLA-4 effector cells); aAPC/Raji cells. Particulars: increasing concentrations. How it is done:
CTLA-4 effector cells were incubated with aAPC/Raji Cells in the absence or presence of increasing concentrations of anti-CTLA-4 antibody (positive control), RLS-0127*, RLS-0130, RLS-0156, RLS-0170 and RLS-0174. Luminescence was detected in luminometer plate reader.
To assess if PIC1 peptides could block CTLA-4 inhibitory activity in a cell-based assay, select peptides were screened in the CTLA-4 Blockade Bioassay (Promega). This bioluminescent cell-based assay is used to measure the potency and stability of molecules targeting CTLA-4 and consists of two genetically engineered cell lines: CTLA-4 effector cells: Jurkat T cells expressing human CTLA-4 and a luciferase reporter driven by a native promoter which responds to TCR/CD28 activation and aAPC/Raji Cells: Raji cells expressing an engineered cell surface protein designed to activate cognate TCRs in an antigen-independent manner and endogenously expressing CTLA-4 ligands CD80 and CD86. When the two cell types are co-cultured, CTLA-4 competes with CD28 for their shared ligands, CD80 and CD86 and thus inhibits CD28 pathway activation and promoter-mediated luminescence. Addition of a molecule that blocks the interaction of CTLA-4 with its ligands CD80 and CD86 results in promoter-mediated luminescence.

“Also recorded” adds a separate entry of the source. Bridge positions count the residues as written; N and C are the ends. Square brackets hold non-standard residues; d marks the D form. Ends that are not written are not given here. Peptide text beside a SMILES is read from it. R8 = C=CCCCCCC[C@@](C)(N)C(=O)O; S5 = C=CCCC[C@](C)(N)C(=O)O; Sar = CNCC(=O)O

T1 sequence (P02745 23-245): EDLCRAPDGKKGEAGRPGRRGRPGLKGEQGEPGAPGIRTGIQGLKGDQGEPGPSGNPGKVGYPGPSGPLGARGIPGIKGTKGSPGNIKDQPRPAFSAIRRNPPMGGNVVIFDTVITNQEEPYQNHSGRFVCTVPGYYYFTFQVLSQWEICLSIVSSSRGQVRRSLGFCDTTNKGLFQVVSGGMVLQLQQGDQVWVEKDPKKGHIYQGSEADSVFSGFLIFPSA
T1 sequence (P02746 28-253): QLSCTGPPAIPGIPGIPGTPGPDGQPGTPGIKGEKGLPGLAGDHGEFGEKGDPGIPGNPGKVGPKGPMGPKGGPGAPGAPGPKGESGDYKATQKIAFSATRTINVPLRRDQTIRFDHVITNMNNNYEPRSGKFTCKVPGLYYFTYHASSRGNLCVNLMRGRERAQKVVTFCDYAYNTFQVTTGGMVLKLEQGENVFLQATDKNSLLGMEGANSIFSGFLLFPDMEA
T1 sequence (P02747 29-245): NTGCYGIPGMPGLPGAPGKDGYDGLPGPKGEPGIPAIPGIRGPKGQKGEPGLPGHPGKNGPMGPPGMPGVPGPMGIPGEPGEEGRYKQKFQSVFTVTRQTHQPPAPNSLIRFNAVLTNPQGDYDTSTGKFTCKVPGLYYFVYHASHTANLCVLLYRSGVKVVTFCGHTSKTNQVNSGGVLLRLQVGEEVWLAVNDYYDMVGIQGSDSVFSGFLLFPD

Consider `CC[C@H](C)[C@H](N)C(=O)N[C@]1(C)CCCCCCC=CCCC[C@@](C)(C(=O)N[C@@H](CS)C(=O)N[C@@H](CCC(N)=O)C(=O)N[C@@H](CCC(=O)O)C(=O)N[C@@H](CCCNC(=N)N)C(=O)N[C@@H](C)C(=O)N[C@@H](C)C(=O)O)NC(=O)CN(C)C(=O)[C@@H]2CCCN2C(=O)[C@H](CCC(=O)O)NC(=O)[C@H](CC(C)C)NC(=O)[C@H]([C@@H](C)CC)NC(=O)[C@H](CC(C)C)NC1=O` [PA-0115, IR8LILEP(Sar)S5CQERAA] (H-I[R8]LILEP[Sar][S5]CQERAA-OH; staple 2-9), for which the “binding to C1q compared with PA-I8Sar” value at C1q (half-maximal binding from binding curves) is reported as “markedly increased binding to C1q; also recorded: enhanced activity”. In addition, the “MPO inhibition compared with PA-I8Sar” value on MPO (half-maximal values from dose-response curves) is “enhanced activity”. Further, the “inhibitory activity in CTLA-4 blockade bioassay (luminescence)” value (shortened to “inhibitory activity”) against CTLA-4 was “did not”.
Consider `CC[C@H](C)[C@H](N)C(=O)N[C@@H](C)C(=O)N[C@@H](CC(C)C)C(=O)N[C@H](C(=O)N[C@@H](CC(C)C)C(=O)N[C@@H](CCC(=O)O)C(=O)N1CCC[C@H]1C(=O)N(C)CC(=O)N[C@@H](CS)C(=O)N[C@@]1(C)CCCC=CCCC[C@@](C)(C(=O)N[C@@H](C)C(=O)O)NC(=O)[C@H](CCCNC(=N)N)NC(=O)[C@H](CCC(=O)O)NC(=O)[C@H](CCC(N)=O)NC1=O)[C@@H](C)CC` [PA-0117, IALILEP(Sar)CS5QERS5A] (H-IALILEP[Sar]C[S5]QER[S5]A-OH; staple 10-14), for which, at C1q, the “binding to C1q” value was “dose-dependent binding”. Besides, on CTLA-4, the “inhibitory activity” value was “did not”.
For the compound “IALILEP(Sar)CCQERA (IALILEP[Sar]CCQERA; cysteine pairing not given here) [RLS-0133*]”, the “inhibition of MPO peroxidase activity (TMB oxidation), dose response” value with MPO was “dose-dependently inhibited TMB oxidation; also recorded: inhibit complement activation and MPO peroxidase activity”. Further, the “inhibitory activity” value in the experiment with CTLA-4 was “did not”.
For the compound “IALILEP(Sar)dCCQERRA (IALILEP[Sar][dC]CQERRA; cysteine pairing not given here) [RLS-0127*]”, the “binding to C1q” value in the experiment with C1q is given as “bound C1q in a dose-dependent manner; also recorded: binds C1q”. The “inhibition of MPO peroxidase activity (TMB oxidation), dose response” value in the experiment with MPO was “dose-dependently inhibited TMB oxidation; also recorded: inhibit complement activation and MPO peroxidase activity”. The “inhibitory activity” value with CTLA-4 is given as “showed inhibitory activity; also recorded: able to inhibit CTLA-4 mediated cell signaling”.

(Values after patent US20230272012A1, “PEPTIDES AND METHODS OF USE” (REALTA LIFE SCIENCES, INC., priority 2020, published 2023).)
